Literature values, collected in patent US7601707B1, “Method for instantly relieving tissue inflammation” (priority 2003, dated 2009).

settings: in vivo

Point of comparison: `CCCNC(C)C(=O)Nc1c(C)csc1C(=O)OC` (stereo not drawn) [Articaine], Half-life 0.333 h. Against it:
- Cc1cccc(C)c1NC(=O)C1CCCCN1C (stereo not drawn) [Mepivicaine 2%, Mepivicaine] — 5.8-fold higher, 1.92 h
- CCCN(CC)C(CC)C(=O)Nc1c(C)cccc1C (stereo not drawn) [Etidocaine] — 7.7-fold higher, 2.58 h
- CCCNC(C)C(=O)Nc1ccccc1C (stereo not drawn) [Prilocaine] — 4.5-fold higher, 1.5 h
- CCCCN1CCCCC1C(=O)Nc1c(C)cccc1C (stereo not drawn) [Bupivicaine] — 11-fold higher, 3.5 h

settings: not given

In the case of `C[C@@H]1C[C@H]2[C@@H]3CCC4=CC(=O)C=C[C@]4(C)[C@@]3(F)[C@@H](O)C[C@]2(C)[C@@]1(O)C(=O)CO` [Dexamethasone], the water solubility is given as “very water-soluble”.

settings: dose at which some people begin to feel toxic systemic effects; not considered lethal

Point of comparison: `CCCNC(C)C(=O)Nc1c(C)csc1C(=O)OC` (stereo not drawn) [Articaine], “Max dose Mg/Kg” value 7.0 Mg/Kg. Against it:
- CCN(CC)CC(=O)Nc1c(C)cccc1C [Lidocaine] — the same, 7.0 Mg/Kg
- Cc1cccc(C)c1NC(=O)C1CCCCN1C (stereo not drawn) [Mepivicaine 2%, Mepivicaine] — lower, 6.6 Mg/Kg
- CCCN(CC)C(CC)C(=O)Nc1c(C)cccc1C (stereo not drawn) [Etidocaine] — higher, 8.0 Mg/Kg
- CCCNC(C)C(=O)Nc1ccccc1C (stereo not drawn) [Prilocaine] — higher, 8.0 Mg/Kg
- CCCCN1CCCCC1C(=O)Nc1c(C)cccc1C (stereo not drawn) [Bupivicaine] — lower, 1.3 Mg/Kg
